For test [1], the target named is T1, human recombinant adrenergic α2B receptor (Homo sapiens, UniProt P18089).
T1 construct: expressed in transfected cells; host or cells: CHO-K1 cells
T1 sequence (P18089 1-450): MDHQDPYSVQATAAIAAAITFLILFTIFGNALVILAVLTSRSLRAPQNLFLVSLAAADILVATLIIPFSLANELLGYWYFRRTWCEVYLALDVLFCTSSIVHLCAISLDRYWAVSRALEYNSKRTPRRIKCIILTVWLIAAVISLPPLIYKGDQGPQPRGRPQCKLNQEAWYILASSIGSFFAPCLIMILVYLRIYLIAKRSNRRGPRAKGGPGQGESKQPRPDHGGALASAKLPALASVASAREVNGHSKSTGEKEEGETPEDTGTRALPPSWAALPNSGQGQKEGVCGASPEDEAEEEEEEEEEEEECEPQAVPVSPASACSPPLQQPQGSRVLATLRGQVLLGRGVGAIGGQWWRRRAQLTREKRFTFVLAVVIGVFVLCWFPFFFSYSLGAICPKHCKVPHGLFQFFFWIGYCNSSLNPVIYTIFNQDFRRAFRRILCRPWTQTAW
The test can be described thus: Adrenergic α2B radioligand binding ([3H]Rauwolscine). As to the method:
To evaluate in radioligand binding assays the activity of compounds of the invention, human recombinant adrenergic α2B receptor expressed in Chinese hamster ovary (CHO-K1) cells (Uhlen S et al. Eur J. Pharmacol. 343(1):93, 1998) in a modified Tris-HCl buffer (50 mM Tris-HCl, pH 7.4, 12.5 mM MgCl2, 1 mM EDTA, 0.2% BSA) was used. Compounds of the invention were incubated with 2.5 nM [^3H]Rauwolscine for 60 minutes at 25° C. Non-specific binding was estimated in the presence of 10 μM Prozosin. Receptor proteins were filtered and washed, the filters were then counted to determine [^3H]Rauwolscine specifically bound. Compounds were screened at 1 μM or lower, using 1% DMSO as vehicle. Biochemical assay results are presented as the percent inhibition of specific binding in Table 4.

The target in test [2] is T2, human recombinant serotonin (5-Hydroxytryptamine) 5-HT6 receptor (Homo sapiens, UniProt P50406).
T2 construct: expressed in transfected cells; host or cells: human HeLa cells
T2 sequence (P50406 whole entry): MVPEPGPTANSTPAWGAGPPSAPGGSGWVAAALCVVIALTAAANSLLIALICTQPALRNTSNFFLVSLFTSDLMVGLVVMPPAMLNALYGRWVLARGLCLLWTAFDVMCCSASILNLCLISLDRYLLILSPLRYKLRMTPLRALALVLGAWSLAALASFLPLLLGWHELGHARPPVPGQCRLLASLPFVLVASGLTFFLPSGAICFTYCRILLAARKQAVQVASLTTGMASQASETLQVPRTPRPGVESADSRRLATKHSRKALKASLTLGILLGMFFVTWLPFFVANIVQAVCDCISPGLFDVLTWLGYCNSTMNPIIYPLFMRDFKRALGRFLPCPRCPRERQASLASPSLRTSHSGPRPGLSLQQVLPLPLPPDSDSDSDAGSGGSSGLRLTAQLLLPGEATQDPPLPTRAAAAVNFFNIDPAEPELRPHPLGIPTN
Kind of test: Serotonin 5-HT6 radioligand binding ([3H]LSD). To be noted: for inhibition at 0.01 µM: compound concentration 10 nM; for inhibition at 0.03 µM: compound concentration 0.03 μM; for inhibition at 0.1 µM: compound concentration 0.1 μM; for inhibition at 0.3 µM: compound concentration 0.3 μM. The method in brief: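 Human 5-HT6 receptor expressed in HeLa cells, in Tris-HCl pH 7.4 with 150 mM NaCl, ascorbic acid and BSA. Compounds at 1 μM or lower (1% DMSO) incubated 120 min at 37° C with 1.5 nM [3H]LSD. Non-specific binding defined with serotonin; filter counting gives % inhibition of specific binding.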

The target in test [3] is T3, human recombinant serotonin (5-Hydroxytryptamine) 5-HT2A receptor (Homo sapiens, UniProt P28223).
T3 construct: expressed in transfected cells; host or cells: CHO-K1 cells
T3 sequence (P28223 whole entry): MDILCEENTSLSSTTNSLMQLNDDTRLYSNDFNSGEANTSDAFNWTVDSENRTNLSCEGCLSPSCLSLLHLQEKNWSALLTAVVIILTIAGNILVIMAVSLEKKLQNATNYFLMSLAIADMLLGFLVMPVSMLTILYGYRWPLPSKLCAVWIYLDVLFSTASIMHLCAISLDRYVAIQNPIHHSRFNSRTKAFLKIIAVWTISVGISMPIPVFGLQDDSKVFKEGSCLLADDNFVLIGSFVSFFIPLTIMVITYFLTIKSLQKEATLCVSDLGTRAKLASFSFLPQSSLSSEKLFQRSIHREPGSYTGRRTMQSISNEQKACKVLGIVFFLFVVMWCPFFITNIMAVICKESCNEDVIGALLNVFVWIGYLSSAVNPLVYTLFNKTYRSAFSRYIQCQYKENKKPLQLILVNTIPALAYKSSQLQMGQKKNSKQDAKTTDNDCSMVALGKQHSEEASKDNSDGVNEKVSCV
Kind of test: Serotonin 5-HT2A radioligand binding ([3H]Ketanserin). The following applies: for inhibition at 0.01 µM: compound concentration 10 nM; for inhibition at 0.03 µM: compound concentration 0.03 μM; for inhibition at 0.1 µM: compound concentration 0.1 μM; for inhibition at 0.3 µM: compound concentration 0.3 μM. The method in brief:
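Membranes from CHO-K1 cells expressing the receptor, in 50 mM Tris-HCl pH 7.4, incubated 60 min at 25° C with 0.5 nM [3H]Ketanserin; 1 μM Mianserin defines non-specific binding. Filtration and counting; values are % inhibition of specific binding at 1 μM or lower, 1% DMSO.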

Test [4] concerns the target T4, human recombinant histamine H2 receptor (Homo sapiens, UniProt P25021).
T4 construct: expressed in transfected cells; host or cells: CHO-K1 cells
The test can be described thus: Histamine H2 radioligand binding ([125I]Aminopotentidine). The method in brief: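 Membranes of CHO-K1 cells expressing human H2 receptor incubated with 0.1 nM [125I]aminopotentidine, 120 min, 25 °C, 50 mM phosphate pH 7.4; nonspecific binding defined with 3 μM tiotidine.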

Test [5] deals with T5, human recombinant histamine H1 receptor (Homo sapiens, UniProt P35367).
T5 construct: expressed in transfected cells; host or cells: CHO cells
T5 sequence (P35367 whole entry): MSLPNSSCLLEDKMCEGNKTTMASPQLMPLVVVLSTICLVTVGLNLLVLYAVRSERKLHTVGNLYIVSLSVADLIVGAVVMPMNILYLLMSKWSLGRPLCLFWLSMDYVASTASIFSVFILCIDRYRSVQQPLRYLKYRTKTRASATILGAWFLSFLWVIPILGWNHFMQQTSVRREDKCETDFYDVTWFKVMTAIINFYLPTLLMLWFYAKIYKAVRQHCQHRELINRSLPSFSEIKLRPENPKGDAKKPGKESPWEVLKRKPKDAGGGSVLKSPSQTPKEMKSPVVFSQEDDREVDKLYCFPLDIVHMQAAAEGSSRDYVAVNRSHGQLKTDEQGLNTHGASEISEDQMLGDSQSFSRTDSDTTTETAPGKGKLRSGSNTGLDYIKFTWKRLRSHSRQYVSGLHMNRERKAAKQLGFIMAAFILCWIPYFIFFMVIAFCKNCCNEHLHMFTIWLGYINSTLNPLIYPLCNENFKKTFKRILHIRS
The test can be described thus: Histamine H1 radioligand binding ([3H]Pyrilamine). The method, boiled down: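 Binding to the human recombinant histamine H1 receptor, expressed in CHO cells, was measured in a modified Tris-HCl buffer (50 mM Tris-HCl, pH 7.4, 2 mM MgCl2, 100 mM NaCl, 250 mM Sucrose). Compounds were incubated with 1.2 nM [3H]Pyrilamine for 180 minutes at 25° C, with 1 μM pyrilamine defining non-specific binding. After filtration and washing, filter counts gave percent inhibition of specific binding.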

Where [6] appears, read: 1 h, read-out: Percent Inhibition of ligand binding Adrenergic (1 μM ligand conc.) α2B.
[7] abbreviates: 2 h, read-out: Percent Inhibition of ligand binding Serotonin (1 μM ligand concentration) 5-HT6.
Where [8] appears, read: 1 h, read-out: Percent Inhibition of ligand binding Serotonin (1 μM ligand concentration) 5-HT2A.
Where [9] appears, read: 1 μM, inhibition of specific [125I]Aminopotentidine binding, read-out: Binding data (Percentage Inhibition) Histamine Binding (1 μM) H2.
Setting [10] is: 1 μM, read-out: Binding data (Percentage Inhibition) Histamine Binding (1 μM) H1.
[11] abbreviates: compound concentration 1 μM, read-out: Percentage inhibition of ligand binding to Adrenergic α2B receptor.
Setting [12] is: read-out: Percentage inhibition of ligand binding to 5-HT6 receptor.
Setting [13] is: compound concentration 1 μM, read-out: Percentage inhibition of ligand binding to 5-HT6 receptor.
[14] abbreviates: read-out: Percentage inhibition of ligand binding to 5-HT2A receptor.
[15] abbreviates: compound concentration 1 μM, read-out: Percentage inhibition of ligand binding to 5-HT2A receptor.
The mark [16] stands for this setting: compound concentration 1 μM, read-out: Percentage inhibition of ligand binding to H2 receptor.
Where [17] appears, read: compound concentration 1 μM, read-out: Percentage inhibition of ligand binding to H1 receptor.

Like-named read-outs stand apart in the source and are kept apart here.

T4 sequence (P25021 whole entry): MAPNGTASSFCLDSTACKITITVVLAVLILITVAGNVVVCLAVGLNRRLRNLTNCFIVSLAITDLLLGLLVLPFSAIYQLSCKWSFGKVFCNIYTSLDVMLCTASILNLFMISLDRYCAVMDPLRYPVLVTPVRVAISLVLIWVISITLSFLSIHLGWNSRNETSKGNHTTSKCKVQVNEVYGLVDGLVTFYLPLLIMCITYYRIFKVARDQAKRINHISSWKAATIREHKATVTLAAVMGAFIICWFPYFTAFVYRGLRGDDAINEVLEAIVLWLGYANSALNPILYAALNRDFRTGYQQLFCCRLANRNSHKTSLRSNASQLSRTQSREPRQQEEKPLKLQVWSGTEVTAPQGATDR

Take `CN1CCc2c(n(CC(=O)O)c3ccc(Cl)cc23)C1` [Compound 52, 2-(6-chloro-1,2,3,4-tetrahydro-2-methylpyrido[3,4-b]indol-9-yl)acetic acid]: the inhibition at 1 µM was 9% in test [1] (setting [6]); -4% in test [2] (setting [7]); -11% in test [3] (setting [8]); -5% in test [4] (setting [9]); 3% in test [5] (setting [10]).
On the same counts, the results for `COC(=O)Cn1c2c(c3cc(Cl)ccc31)CCN(C)C2` [Compound 54, methyl 2-(6-chloro-2-methyl-3,4-dihydro-1H-pyrido[3,4-b]indol-9(2H)-yl)acetate] are 18%, 8%, 0%, 21% and 5%.
On the same counts, the results for `COc1ccc(C(O)Cn2c3c(c4cc(C)ccc42)CCN(C)C3)cc1OC` (stereo not drawn) [Compound 66] are 74%, 5%, 51%, 1% and 19%.
On the same counts, the results for `CN1CCc2c(n(CC(=O)N3CCNCC3)c3ccc(Cl)cc23)C1` [Compound 55, 2-(6-chloro-2-methyl-3,4-dihydro-1H-pyrido[3,4-b]indol-9(2H)-yl)-1-(piperazin-1-yl)ethanone] are -21%, 0%, 17%, 2% and 90%.
Regarding `Cc1ccc(C(O)Cn2c3c(c4cc(C)ccc42)CCN(C)C3)cc1` (stereo not drawn) [Compound 72], the inhibition at 1 µM in test [1] (setting [6]) stood at 105%; in test [2] (setting [7]), 61%; in test [3] (setting [8]) it was 96%; in test [4] (setting [9]), 19%; in test [5] (setting [10]), 55%.
In the case of `C/C(=C\n1c2c(c3cc(C)ccc31)CCN(C)C2)c1ccc(F)cc1` [Compound 91, (E)-9-(2-(4-fluorophenyl)prop-1-enyl)-2,6-dimethyl-2,3,4,9-tetrahydro-1H-pyrido[3,4-b]indole], the inhibition at 1 µM came out at 94% in test [1] (setting [6]); 94% in test [1] (setting [11]); 100% in test [2] (setting [7]); 100% in test [2] (setting [13]); 97% in test [3] (setting [8]); 97% in test [3] (setting [15]). For the same compound, the inhibition at 1 µM amounted to 68% in test [4] (setting [9]), 68% in test [4] (setting [16]), 28% in test [5] (setting [10]) and 42% in test [5] (setting [17]). Further, the inhibition at 0.003 µM in test [2] (compound concentration 3 nM, read-out: Percentage inhibition of ligand binding to 5-HT6 receptor) was 15%; in test [3] (compound concentration 3 nM, read-out: Percentage inhibition of ligand binding to 5-HT2A receptor) it was 2%. Also, the inhibition at 0.01 µM is 42% in test [2] (setting [12]) and 21% in test [3] (setting [14]). The inhibition at 0.03 µM in test [2] (setting [12]) amounted to 68%; in test [3] (setting [14]), 54%. Besides, the inhibition at 0.1 µM is 84% in test [2] (setting [12]) and 79% in test [3] (setting [14]). Further, the inhibition at 0.3 µM was determined as 96% in test [2] (setting [12]) and 92% in test [3] (setting [14]). In test [5] (compound concentration 3 μM, read-out: Percentage inhibition of ligand binding to H1 receptor), the inhibition at 3 µM was found to be 75%. Besides, the inhibition at 10 µM in test [5] (compound concentration 10 μM, read-out: Percentage inhibition of ligand binding to H1 receptor) turned out to be 95%.
With `Cc1ccc2c(c1)c1c(n2CCc2ccc(C(F)(F)F)nc2)CN(C)CC1` [Compound 5, 9-(2-(6-(trifluoromethyl)pyridin-3-yl)ethyl)-2,3,4,9-tetrahydro-2,6-dimethyl-1H-pyrido[3,4-b]indole], the inhibition at 1 µM in test [1] (setting [6]) was determined as 83%; in test [2] (setting [7]), 6%; in test [3] (setting [8]), 51%; in test [4] (setting [9]), 36%; in test [5] (setting [10]), 35%.
As for `CC1c2c(c3cc(Cl)ccc3n2C#Cc2ccc(F)cc2)CCN1C` (stereo not drawn) [Compound 128], the inhibition at 1 µM in test [1] (setting [6]) stood at 94%; in test [2] (setting [7]) it was 90%; in test [3] (setting [8]), 95%; in test [4] (setting [9]) it was 53%; in test [5] (setting [10]), 32%.
As for `Cc1ccc2c(c1)c1c(n2/C=C/c2ccccc2)CN(C)CC1` [Compound 92], the inhibition at 1 µM in test [1] (setting [6]) worked out at 104%; in test [1] (setting [11]), 104%; in test [2] (setting [7]) it was 96%; in test [2] (setting [13]), 96%; in test [3] (setting [8]), 97%; in test [3] (setting [15]), 97%. Moreover, the inhibition at 1 µM in test [4] (setting [9]) came to 50%; in test [4] (setting [16]), 50%; in test [5] (setting [10]) it was 99%; in test [5] (setting [17]), 99%. For the same compound, the values for the inhibition at 0.01 µM in test [2] (setting [12]) and in test [3] (setting [14]) were 14% and 13%, respectively. For the same compound, the inhibition at 0.03 µM in test [2] (setting [12]) amounted to 28%; in test [3] (setting [14]), 37%; in test [5] (compound concentration 0.03 μM, read-out: Percentage inhibition of ligand binding to H1 receptor) it was 67%. For the same compound, the inhibition at 0.1 µM in test [2] (setting [12]) is 60%; in test [3] (setting [14]) it was 65%; in test [5] (compound concentration 0.1 μM, read-out: Percentage inhibition of ligand binding to H1 receptor) it was 91%. Besides, the inhibition at 0.3 µM in test [2] (setting [12]) was determined as 81%; in test [3] (setting [14]), 83%; in test [5] (compound concentration 0.3 μM, read-out: Percentage inhibition of ligand binding to H1 receptor), 96%.
`Cc1ccc2c(c1)c1c(n2CC(O)c2ccccc2)CN(C)CC1` (stereo not drawn) [Compound 67]: the inhibition at 1 µM turned out to be 106% in test [1] (setting [6]); 51% in test [2] (setting [7]); 77% in test [3] (setting [8]); 8% in test [4] (setting [9]); 35% in test [5] (setting [10]).
On the same counts, the results for `Cc1ccc(CCCn2c3c(c4cc(Cl)ccc42)CCN(C)C3)cn1` [Compound 56, 6-chloro-2-methyl-9-(3-(6-methylpyridin-3-yl)propyl)-2,3,4,9-tetrahydro-1H-pyrido[3,4-b]indole] are -10%, -3%, 12%, 20% and 30%.
On the same counts, the results for `CN1CCc2c(n(CC(=O)N(C)C3CCCCC3)c3ccc(Cl)cc23)C1` [Compound 18, 2-(6-chloro-1,2,3,4-tetrahydro-2-methylpyrido[3,4-b]indol-9-yl)-N-cyclohexyl-N-methylacetamide] are 19%, 1%, -1%, 7% and 10%.
